Measurements published in ChEMBL document CHEMBL4229379, “Synthesis and structure-activity relationship of novel bisindole amidines active against MDR Gram-positive and Gram-negative bacteria” (Eur J Med Chem, 2018).
≈ marks a conversion by molar mass, not a printed value.

Assays:
Assay type in all cases: functional
Staphylococcus aureus [1] = assay: Antibacterial activity against methicillin-resistant Staphylococcus aureus ATCC 33591 infected in ICR mouse assessed as mouse survival at 2.5 mg/kg, iv administered at 1 and 5 hrs post infection and measured on day 7 day post last dose (reference value: 0%); conditions: ATCC 33591, iv
Escherichia coli [2] = assay: Antibacterial activity against extended-spectrum beta-lactamase harboring Escherichia coli CDC1001728 after 18 hrs by CLSI broth microdilution method; conditions: CDC1001728, 18 h
Staphylococcus aureus [3] = assay: Antibacterial activity against methicillin-resistant Staphylococcus aureus ATCC 33591 after 18 hrs by CLSI broth microdilution method; conditions: ATCC 33591, 18 h
Enterococcus faecalis [4] = assay: Antibacterial activity against vancomycin-resistant Enterococcus faecalis 09-9 after 18 hrs by CLSI broth microdilution method; conditions: 09-9, 18 h
Proteus mirabilis = assay: Antibacterial activity against Proteus mirabilis 12-6 after 18 hrs by CLSI broth microdilution method; conditions: 12-6, 18 h
Klebsiella pneumoniae = assay: Antibacterial activity against extended-spectrum beta-lactamase deficient Klebsiella pneumoniae 12-4 after 18 hrs by CLSI broth microdilution method; conditions: 12-4, 18 h
Enterococcus faecalis [5] = assay: Antibacterial activity against vancomycin-resistant Enterococcus faecalis ATCC 51299 after 18 hrs by CLSI broth microdilution method; conditions: ATCC 51299, 18 h
Providencia rettgeri = assay: Antibacterial activity against Providencia rettgeri ATCC 31052 after 18 hrs by CLSI broth microdilution method; conditions: ATCC 31052, 18 h
[6] = test system: Acinetobacter calcoaceticus; assay: Antibacterial activity against new delhi metallo-beta-lactamase-1 harboring Acinetobacter calcoaceticus 13-1 after 18 hrs by CLSI broth microdilution method; conditions: 13-1, 18 h
Escherichia coli [7] = assay: Antibacterial activity against extended-spectrum beta-lactamase harboring Escherichia coli 12-15 after 18 hrs by CLSI broth microdilution method; conditions: 12-15, 18 h
Pseudomonas aeruginosa = assay: Antibacterial activity against Pseudomonas aeruginosa 12-16 after 18 hrs by CLSI broth microdilution method; conditions: 12-16, 18 h
Enterobacter cloacae = assay: Antibacterial activity against new delhi metallo-beta-lactamase-1 harboring Enterobacter cloacae 13-1 after 18 hrs by CLSI broth microdilution method; conditions: 13-1, 18 h
Staphylococcus aureus [8] = assay: Antibacterial activity against methicillin-sensitive Staphylococcus aureus 15 after 18 hrs by CLSI broth microdilution method; conditions: Staphylococcus aureus, 15, 18 h
Proteus vulgaris = assay: Antibacterial activity against Proteus vulgaris ATCC 29905 after 18 hrs by CLSI broth microdilution method; conditions: ATCC 29905, 18 h

SMILES: CN(C)C(=N)c1ccc2cc(-c3ccc(-c4cc5ccc(C(=N)N(C)C)cc5[nH]4)cc3)[nH]c2c1
- survival at 2.5 mg/kg (Staphylococcus aureus [1]): 50%
- MIC (Escherichia coli [2]): 2 µg/mL (≈ 4.46 µM)
- MIC (Staphylococcus aureus [3]): 0.25 µg/mL (≈ 0.557 µM)
- MIC (Enterococcus faecalis [4]): 1 µg/mL (≈ 2.23 µM)
- MIC (Proteus mirabilis): 8 µg/mL (≈ 17.8 µM)
- MIC (Klebsiella pneumoniae): 4 µg/mL (≈ 8.92 µM)
- MIC (Enterococcus faecalis [5]): 1 µg/mL (≈ 2.23 µM)
- MIC (Providencia rettgeri): 2 µg/mL (≈ 4.46 µM)
- MIC [6]: 4 µg/mL (≈ 8.92 µM)
- MIC (Escherichia coli [7]): 2 µg/mL (≈ 4.46 µM)
- MIC (Pseudomonas aeruginosa): 64 µg/mL (≈ 143 µM)
- MIC (Enterobacter cloacae): 4 µg/mL (≈ 8.92 µM)
- MIC (Staphylococcus aureus [8]): 0.25 µg/mL (≈ 0.557 µM)
- MIC (Proteus vulgaris): 4 µg/mL (≈ 8.92 µM)
